Values quoted from earlier work in patent US9327003B2, “Use of foti to enhance stem cell mobilization and proliferation” (Stemtech International, Inc., priority 2011, dated 2016).

B1: G-CSF: granulocyte colony-stimulating factor or recombinant forms thereof (protein, UniProt P09919 31-207, looked up)
Granulocyte …: TPLGPASSLPQSFLLKCLEQVRKIQGDGAALQEKLVSECATYKLCHPEELVLLGHSLGIPWAPLSSCPSQALQLAGCLSQLHSGLFLYQGLLQALEGISPELGPTLDTLQLDVADFATTIWQQMEELGMAPALQPTQGAMPAFASAFQRRAGGVLVASHLQSFLEVSYRVLRHLAQP

Experiments:
[1] = including hemorrhaging, rupturing of the spleen, bloody sputum, bone disorders
[2] = system: circulating HSC; details: injection / administration

Molecule | side effects [1] | time course of elevating circulating HSC numbers [2] | other results
c1cc(CN2CCCNCCNCCCNCC2)ccc1CN1CCCNCCNCCCNCC1 [AMD3100, reference compound] | significant side effects | – | –
OC[C@H]1O[C@@H](Oc2c(O)cc(O)cc2C=Cc2ccc(O)cc2)[C@H](O)[C@@H](O)[C@@H]1O [2,3,5,4′-tetrahydroxystilbene-2-O-β-d-glycoside] | – | – | stability in aqueous solutions: readily degrade in aqueous solutions in a temperature and pH dependent manner
G-CSF: granulocyte colony-stimulating factor or recombinant forms thereof | – | requires days to achieve peak circulating HSC numbers | –
IL-8: interleukin-8 | – | acts only within minutes and has a short-lived effect | –
B1 | significant side effects | – | –
